In ChEMBL document CHEMBL1201862, “PubChem BioAssay data set” (2004):
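The compound was tested at five concentrations on cells cultured in 96-well plates, with a 48-hour exposure period. GI50: concentration for 50% inhibition of growth.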 The source made the active and inactive calls. No stated cut-off is given here; in the data, active = GI50 up to about 1.1 µM and inactive = higher.

What was measured:
Experiment in all cases: inhibition of tumour cell growth, NCI panel, 48 h
SNB-75 = tested on: SNB-75
NCI-H460 = tested on: NCI-H460
UACC-257 = tested on: UACC-257
KM12 = tested on: KM12
U-251 = tested on: U-251
NCI/ADR-RES = tested on: NCI/ADR-RES
MOLT-4 = tested on: MOLT-4
HT-29 = tested on: HT-29
SR = tested on: SR
SF-539 = tested on: SF-539
OVCAR-3 = tested on: OVCAR-3
UACC-62 = tested on: UACC-62
OVCAR-5 = tested on: OVCAR-5
PC-3 = tested on: PC-3
ACHN = tested on: ACHN
SN12C = tested on: SN12C
SK-MEL-2 = tested on: SK-MEL-2
SK-MEL-5 = tested on: SK-MEL-5
LOX IMVI = tested on: LOX IMVI
RPMI-8226 = tested on: RPMI-8226

Measured: GI50

O=C(O)Cn1ccc(=O)c2ccc([N+](=O)[O-])cc21
inactive: SNB-75 38.4 µM | NCI-H460 > 100 µM | UACC-257 > 100 µM | KM12 > 100 µM | U-251 > 100 µM | NCI/ADR-RES > 100 µM | MOLT-4 > 100 µM | HT-29 > 100 µM | SR > 100 µM | SF-539 > 100 µM | OVCAR-3 > 100 µM | UACC-62 > 100 µM | OVCAR-5 > 100 µM | PC-3 > 100 µM | ACHN > 100 µM | SN12C > 100 µM | SK-MEL-2 > 100 µM | SK-MEL-5 > 100 µM

N#CC1C(=O)NC23CCCCC2C1c1ccccc1O3 (configuration not stated)
inactive: SNB-75 > 100 µM | NCI-H460 > 100 µM | UACC-257 > 100 µM | KM12 > 100 µM | U-251 > 100 µM | LOX IMVI > 100 µM | NCI/ADR-RES > 100 µM | MOLT-4 > 100 µM | HT-29 > 100 µM | OVCAR-3 > 100 µM | RPMI-8226 > 100 µM | UACC-62 > 100 µM | OVCAR-5 > 100 µM | PC-3 > 100 µM | ACHN > 100 µM | SK-MEL-2 > 100 µM | SK-MEL-5 > 100 µM

O/N=C(/C(Cl)=C(Cl)Cl)C(Cl)Cl
inactive: SNB-75 19 µM | NCI-H460 37.2 µM | UACC-257 19.6 µM | KM12 22.4 µM | U-251 19.5 µM | LOX IMVI 17.2 µM | NCI/ADR-RES 32.2 µM | MOLT-4 15.9 µM | HT-29 16.7 µM | SR 10.8 µM | SF-539 21.5 µM | OVCAR-3 19.6 µM | RPMI-8226 14.2 µM | UACC-62 24.7 µM | OVCAR-5 25.9 µM | PC-3 17.3 µM | ACHN 17.9 µM | SN12C 18.1 µM | SK-MEL-5 19.5 µM

CN1CC(S(=O)(=O)c2ccccc2)CC(S(=O)(=O)c2ccccc2)C1c1ccccc1 (configuration not stated)
inactive: NCI-H460 16.2 µM | UACC-257 15 µM | KM12 13.2 µM | U-251 12.1 µM | LOX IMVI 11.7 µM | NCI/ADR-RES 23.3 µM | MOLT-4 16.8 µM | HT-29 14.8 µM | SR 6.22 µM | SF-539 4.86 µM | OVCAR-3 12.3 µM | UACC-62 14.3 µM | OVCAR-5 15.2 µM | PC-3 12.1 µM | ACHN 12.5 µM | SN12C 10.4 µM | SK-MEL-2 4.47 µM | SK-MEL-5 14.6 µM

O=C(C/N=C(\CN(c1ccccc1)c1ccccc1)Oc1c(Cl)cc(Cl)cc1Cl)n1cnc2ccccc21
inactive: SNB-75 > 100 µM | NCI-H460 > 100 µM | UACC-257 > 100 µM | KM12 96.6 µM | U-251 82.6 µM | NCI/ADR-RES 38.3 µM | MOLT-4 18.1 µM | HT-29 44.2 µM | SR 33.9 µM | SF-539 > 100 µM | OVCAR-3 32.5 µM | RPMI-8226 44.6 µM | UACC-62 32.3 µM | OVCAR-5 28 µM | PC-3 27.5 µM | ACHN 78.2 µM | SN12C 56.2 µM | SK-MEL-5 76 µM

N#C/C=c1/c2ccccc2n2nc3ccccc3c12
inactive: NCI-H460 8.09 µM | UACC-257 > 100 µM | KM12 17.3 µM | U-251 12 µM | LOX IMVI 8.13 µM | NCI/ADR-RES 14.9 µM | HT-29 25.6 µM | SR 5.79 µM | SF-539 8.69 µM | OVCAR-3 34.5 µM | RPMI-8226 7.36 µM | UACC-62 14.9 µM | OVCAR-5 67.6 µM | PC-3 68.4 µM | ACHN 6.71 µM | SN12C 25.2 µM | SK-MEL-2 48.6 µM | SK-MEL-5 26.7 µM

CC(C)(C)C(=O)C(CC(=O)c1ccccc1)C(=O)C(C)(C)C
inactive: SNB-75 15.3 µM | NCI-H460 > 100 µM | UACC-257 > 100 µM | KM12 > 100 µM | U-251 > 100 µM | LOX IMVI > 100 µM | NCI/ADR-RES > 100 µM | MOLT-4 > 100 µM | HT-29 > 100 µM | SF-539 > 100 µM | OVCAR-3 > 100 µM | RPMI-8226 > 100 µM | OVCAR-5 > 100 µM | PC-3 > 100 µM | ACHN > 100 µM | SN12C > 100 µM | SK-MEL-2 > 100 µM | SK-MEL-5 > 100 µM

CC(=O)Nc1cc(C(=O)Nc2cc(C(=O)Nc3cc(C(=O)Nc4cc(C(=O)Nc5cc(C(=O)NCCC(=O)NCCCN(C)C)n(C)c5)n(C)c4)n(C)c3)n(C)c2)n(C)c1
inactive: SNB-75 > 100 µM | NCI-H460 > 100 µM | UACC-257 76.2 µM | KM12 23.6 µM | U-251 67.9 µM | LOX IMVI 37.4 µM | NCI/ADR-RES > 100 µM | MOLT-4 38.9 µM | HT-29 > 100 µM | SF-539 44.5 µM | OVCAR-3 > 100 µM | RPMI-8226 > 100 µM | OVCAR-5 > 100 µM | PC-3 > 100 µM | ACHN > 100 µM | SN12C > 100 µM | SK-MEL-2 > 100 µM | SK-MEL-5 > 100 µM

Oc1ccccc1/C=N/Nc1nc(N/N=C/c2ccccc2O)nc(N/N=C/c2ccccc2O)n1
inactive: NCI-H460 44.8 µM | UACC-257 > 100 µM | KM12 > 100 µM | U-251 47.1 µM | LOX IMVI > 100 µM | NCI/ADR-RES 24.5 µM | MOLT-4 10.5 µM | HT-29 69.7 µM | SR > 100 µM | SF-539 > 100 µM | OVCAR-3 29.2 µM | UACC-62 51.1 µM | OVCAR-5 > 100 µM | PC-3 78.2 µM | ACHN 69.7 µM | SN12C > 100 µM | SK-MEL-2 43.6 µM | SK-MEL-5 > 100 µM

Cn1c(=O)[nH]n(-c2ccc3ccccc3c2)c1=O
inactive: SNB-75 > 100 µM | NCI-H460 > 100 µM | UACC-257 > 100 µM | KM12 > 100 µM | U-251 > 100 µM | LOX IMVI > 100 µM | NCI/ADR-RES > 100 µM | HT-29 > 100 µM | SF-539 > 100 µM | OVCAR-3 > 100 µM | RPMI-8226 > 100 µM | UACC-62 > 100 µM | OVCAR-5 > 100 µM | PC-3 > 100 µM | ACHN > 100 µM | SN12C > 100 µM | SK-MEL-2 > 100 µM | SK-MEL-5 > 100 µM

COC(=O)C1=CC2C(=O)c3ccccc3C1(c1ccccc1)N2C1CCCCC1 (configuration not stated)
inactive: SNB-75 35.1 µM | NCI-H460 14.8 µM | UACC-257 12.4 µM | KM12 14.3 µM | U-251 16.6 µM | LOX IMVI 15.5 µM | NCI/ADR-RES 27.9 µM | MOLT-4 7.55 µM | HT-29 14.8 µM | SF-539 20.6 µM | OVCAR-3 23.6 µM | OVCAR-5 32.3 µM | PC-3 9.62 µM | ACHN 16.2 µM | SN12C 24 µM | SK-MEL-2 12.3 µM | SK-MEL-5 10.1 µM
